Test results as given in US8853359B2, “Endokinin C/D-derived peptides” (University of Miyazaki, priority 2009, dated 2014).
Ends that are not written are not given here.

Legend:
[1] = system: carrageenan-induced thermal hyperalgesia; test: carrageenan-induced thermal hyperalgesia (withdrawal latency), EKC/D injected 1 hour after carrageenan; type: in vivo, rat
Excerpt: Intraplantar injection of carrageenan induces thermal hyperalgesia accompanying inflammation. To examine induction of thermal hyperalgesia, noxious thermal stimulation was applied to plantar using infrared rays. It can be said that thermal hyperalgesia takes place when the latency period of the withdrawal response becomes shorter than that for untreated rats. In FIG. 5, the vertical axis of the graph indicates the latency period in seconds and the horizontal axis of the graph indicates the time after injection of saline or EKC/D in minutes. The latency period in untreated rats (control) after noxious thermal stimulation was about 21 seconds. When saline (100 μl) was injected at 1 hour after carrageenan injection, the latency period was about 13 seconds. […] This state was sustained for 60 minutes (saline). […] When 10^−5M (1 nmol/100 μl) and 10^−6M ([…]) EKC/D were injected, the latency period before rats responded to noxious thermal stimulation was about 17 seconds, which was longer than that in the case of treatment with saline (EKC/D10^−5 M and EKC/D 10^−6 M).

[2] = system: scratching behavior and thermal hyperalgesia induced by SP or EKA/B; conditions: Non-patent document 3, cited from earlier work
[3] = system: carrageenan-induced inflammation; test: carrageenan-induced increase in paw size, EKC/D injected 1 hour after carrageenan; type: in vivo, rat
Procedure: The vertical axis of the graph in FIG. 4 indicates increases (%) in paw size and the horizontal axis indicates the time after administration of saline (100 μl: saline) or EKC/D with “minutes,” thereby showing the time course changes of anti-inflammatory effects of EKC/D administration on carrageenan-induced inflammation. The paw size before carrageenan administration was determined to be 100%. Paw size was increased by about 50% (saline) as measured using a paw size meter at 1 hour after carrageenan injection. This state continued for about 60 minutes (saline). […] When 10^−3M EKC/D (100 nmol/100 μl) was injected, paw size had decreased to about 40% at 10 minutes after, to about 20% at 30 minutes after, and to about 40% at 50 minutes after injection.

[4] = system: substance P-induced scratching behavior; test: substance P-induced scratching behavior after intrathecal pre-administration of test peptide; type: in vivo, rat
Procedure: In Example 1, 10^−3M (10 nmol/10 μl) EKC/D or D-EKC/D (1), (2) or (3) was administered to intrathecally catheterized rats via catheters. After the predetermined time periods denoted on the horizontal axis in FIG. 1, the numbers of scratching events (scratching behavior) induced by intrathecal administration of 10^−3M (10 nmol/10 μl) substance P (hereafter, referred to as “SP”) were determined. Here, the expression “10^−3M (10 nmol/10 μl) EKC/D or D-EKC/D (1), (2), or (3) was administered” refers to a situation in which 10 μl in total of a solution (that is, 10^−3M solution) containing 10 nmol of EKC/D or D-EKC/D (1), (2), or (3) was all administered. The expression, “ . . . administration of 10^−3M substance P (10 nmol/10 μl)” refers to a situation in which 10 μl in total of a solution (that is, 10^−3M solution) containing 10 nmol of the substance was all administered. The same similarly applies below.
Meanwhile, saline (10 μl) was intrathecally administered to intrathecally catheterized rats via catheters and then, after 30 minutes, 10^−3M SP (10 nmol/10 μl) was intrathecally administered to the rats. The number of the thus induced scratching events was determined to be the number of scratching events in the control group. The control group is denoted with saline-4-SP in FIG. 1.
The vertical axis of the graph in FIG. 1 indicates changes in the numbers of scratching events (represented by relative values) due to administration of 10^−3M EKC/D or D-EKC/D (1), (2), or (3) when the number of scratching events (of untreated rats in a control group) induced by intrathecal administration of 10^−3M substance P was determined to be 100%. Meanwhile, the horizontal axis indicates the intervals between the administration of EKC/D, D-EKC/D (1), (2), or (3) and 10^−3M substance P. […]
The test was conducted with procedures similar to those in Example 1, except for 4 hours of interval between the administration of each test peptide and the administration of substance P. The concentration of each test peptide and that of substance P for administration were determined to be 10^−3M (10 nmol/10 μl), similarly to Example 1. The number of scratching events in the control group was determined with procedures similar to those in Example 1, such that substance P was administered at 30 minutes after administration of saline (10 μl) and then the number was determined.

[5] = system: carrageenan-induced inflammation; test: carrageenan-induced increase in paw size after intrathecal pre-administration of peptide; type: in vivo, rat
Procedure: (§1) In Example 6, 10^−3M (10 nmol/10 μl) D-EKC/D (3), (5), or (7), Spantide I, or saline (10 μl) was administered to intrathecally catheterized rats via catheters. Four hours later, 100 μl of 2% carrageenan (2 mg/100 μl) was subcutaneously administered to rat plantar.
Paw size was measured with time for 60 minutes after carrageenan administration. The paw size (control) before carrageenan administration was designated as the basal level, and the increases in paw size were then calculated.

[6] = system: carrageenan-induced thermal hyperalgesia; test: withdrawal latency to noxious thermal stimulation after carrageenan, intrathecal pre-administration of peptide; type: in vivo, rat; conditions: 10^-3M (10 nmol/10 μl) peptide intrathecal; 2% carrageenan 4 hours later; FIG. 9B
Procedure: as §1
Meanwhile, noxious thermal stimulation was applied to paw plantar using infrared rays at 10-minute intervals after carrageenan administration. The time (latency period) required for withdrawal response to take place was measured. The latency period before untreated rats following noxious thermal stimulation was designated as the control latency period.

[7] = system: formalin-induced pain behavior; test: formalin-induced pain behavior (flinching) after intrathecal pre-administration of peptide; type: in vivo, rat
Procedure: In Example 5, 10^−3M (10 nmol/10 μl) D-EKC/D (3), (5), or (7), Spantide I, or saline (10 μl) was administered to intrathecally catheterized rats via catheters and then 4 hours later, 50 μl of 2% formalin was administered subcutaneously to hind paws of rats. The number of flinching (pain behavior) was determined for 60 minutes after formalin administration, so that the degree of pain could be evaluated. During the 10-minute period after formalin administration (referred to as phase I), pain behavior was measured once every 2 minutes (1 minute per measurement). During the period from 10 minutes to 60 minutes after formalin administration (referred to as phase II), pain behavior was measured once every 5 minutes (1 minute per measurement), so that the degree of pain could be evaluated. During phase I, behavior (phasic pain) resulting from chemical stimulation accompanying formalin administration was observed. During phase II, tonic pain following the phasic pain was observed.
The horizontal axis indicates time (minutes) after formalin administration and the vertical axis indicates the measured number of pain behavior per minute.

## Ala-Tyr-Gln-Leu-Glu-His-Thr-Phe-Gln-Gly-Leu-Leu-NH2 (AYQLEHTFQGLL-NH2; listed as Homo sapiens) [EKC/D]
[1]; 10^-3M EKC/D (100 nmol/100 μl), untreated about 21 seconds, saline about 13 seconds
  latency period following noxious thermal stimulation: almost the same as that in the case of untreated rats
[1]; 10^-4M EKC/D (10 nmol/100 μl)
  latency period following noxious thermal stimulation: almost the same tendency as that in the case of 10^−3M EKC/D
[1]; 10^-5M EKC/D (1 nmol/100 μl)
  latency period following noxious thermal stimulation: about 17 seconds
[1]; 10^-6M EKC/D (100 μmol/100 μl)
  latency period following noxious thermal stimulation: about 17 seconds
[1]; 10^-7M EKC/D (10 pmol/100 μl)
  latency period following noxious thermal stimulation: almost the same as that in the case of saline
[2]; 5 minutes after administration of EKC/D
  SP-induced hyperalgesia: suppressed
[2]; intrathecal administration to a rat
  induction of scratching behavior or thermal hyperalgesia by the peptide itself: does not induce
[2]; pre-administration of the peptide, intrathecal
  scratching behavior and thermal hyperalgesia induced by administration of SP or EKA/B: suppresses
[3]; 10^-3M EKC/D (100 nmol/100 μl)
  increases in paw size accompanying inflammation due to carrageenan, overall: significantly suppressed
[3]; 10^-3M EKC/D (100 nmol/100 μl), 10 minutes after injection, saline about 50%
  increase in paw size: about 40%
[3]; 10^-3M EKC/D (100 nmol/100 μl), 30 minutes after injection
  increase in paw size: about 20%
[3]; 10^-3M EKC/D (100 nmol/100 μl), 50 minutes after injection
  increase in paw size: about 40%
[3]; 10^-4M EKC/D (10 nmol/100 μl)
  anti-inflammatory effects, overall: weak anti-inflammatory effects
[3]; 10^-4M EKC/D (10 nmol/100 μl), 30 minutes after injection
  increase in paw size: 40%
[3]; 10^-4M EKC/D (10 nmol/100 μl), 60 minutes after injection
  paw size: almost at a normal level
[3]; 10^-5M EKC/D (1 nmol/100 μl)
  effect on paw size: No clear effects
[3]; 10^-6M EKC/D (100 pmol/100 μl)
  effect on paw size: No clear effects
[4]; 10^-3M (10 nmol/10 μl) peptide intrathecal, 10^-3M SP 30 minutes after peptide, FIG. 1
  number of scratching events induced by substance P, relative to control group (saline+SP = 100%): about 60%
[4]; 10^-3M peptide intrathecal, 10^-3M SP
  duration of suppressive effects on substance P-induced scratching behavior: ≤ 1 h
[4]; 10^-3M peptide intrathecal, SP 1 hour after peptide, FIG. 1
  number of scratching events induced by substance P, relative to control group: restored 1 hour later to the same degree as that for the control group

## Glu-His-Thr-Phe-Gln-DTrp-Leu-Leu-NH2 (EHTFQXLL; HELM PEPTIDE1{E.H.T.F.Q.[dW].L.L.[am]}$$$$V2.0; N-terminus assumed; SMILES CC(C)C[C@H](NC(=O)[C@H](CC(C)C)NC(=O)[C@@H](Cc1c[nH]c2ccccc12)NC(=O)[C@H](CCC(N)=O)NC(=O)[C@H](Cc1ccccc1)NC(=O)[C@@H](NC(=O)[C@H](Cc1c[nH]cn1)NC(=O)[C@@H](N)CCC(=O)O)[C@@H](C)O)C(N)=O) [D-EKC/D (5)]
[5]; 10^-3M (10 nmol/10 μl) peptide intrathecal, 2% carrageenan 4 hours later, FIG. 9A
  rate of increase of paw sizes: significant decreases
[5]; 10^-3M intrathecal, carrageenan 4 hours later
  effects on paw size and withdrawal time compared with Spantide I: sustained to a greater extent than the effects of Spantide I
[6]
  withdrawal time (latency period): significant increases
[4]; Example 2, FIG. 2, 10^-3M peptide, SP 4 hours after peptide, control about 380 scratching
  scratching behavior induced by substance P: almost never induced
[4]; Example 2, FIG. 2, 10^-3M peptide, interval 8 hours and then 14 hours
  suppressive effects on scratching as administration interval is prolonged: gradually attenuated
[4]; Example 3, FIG. 3, 10^-3M peptide, SP 4 hours after peptide, control 380 scratching
  scratching behavior induced by substance P / suppressive effects: attenuated
[7]; 10^-3M (10 nmol/10 μl) peptide intrathecal, 2% formalin 4 hours later, 0-10 minutes after formalin
  numbers of pain behavior during phase I: significantly decreased
[7]; 10^-3M (10 nmol/10 μl) peptide intrathecal, 2% formalin 4 hours later, 10-60 minutes after formalin
  numbers of pain behavior during phase II: significantly decreased
[7]; 10^-3M intrathecal, formalin 4 hours later
  suppressing effects on formalin-induced pain behavior compared with Spantide I: sustained longer compared with the effects of Spantide I
